Data: US7355024B2, “Regulatory sequences for modulation of INGAP expression and reporter constructs” (GMP Endotherapeutics, Inc., priority 2002, dated 2008)

Columns and labels:
[1] = tested on: hamster INGAP 5′-regulatory region; test: β-galactosidase reporter assay with hamster INGAP 5′-regulatory region fragments in transfected 293T cells; type: cell-based; conditions: human 293T cells
Description: Promoter analysis of INGAP identified a number of potential promoter-proximal regulatory sites including the consensus transcription factor binding sites; cAMP response element (CRE), AP-1 and STAT. Promoter-fragment reporter-gene constructs were transiently transfected into 293T cells and co-transfection of secretory alkaline phosphatase was used to normalize for transfection efficiency.
(§1) Reporter constructs containing INGAP 5′-regulatory region fragments 2—3sP (SEQ ID NO: 37), 2—3dP (SEQ ID NO: 38), 2—3pP (SEQ ID NO: 36), 14—3P (SEQ ID NO: 34), 16—3P (SEQ ID NO: 31), or 19—3P (SEQ ID NO: 23) were transfected into human cells. The pβGal-Basic plasmid without the hamster INGAP DNA was also transfected into human cells as a control to measure the level of endogenous reporter activity. Two days following transfection, the cells were treated with PMA for 24 hours or were untreated. To determine the level of promoter activity, the amount of β-galactosidase gene product was determined using a luminescent assay for β-galactosidase.
as §1, with “construct” for “constructs”, “DNA nucleotides 2030 to 3120 was” for “fragments 2—3sP (SEQ ID NO: 37), 2—3dP (SEQ ID NO: 38), 2—3pP (SEQ ID NO: 36), 14—3P (SEQ ID NO: 34), 16—3P (SEQ ID NO: 31), or 19—3P (SEQ ID NO: 23) were”, “LIF” for “PMA”
To map the approximate location of PMA-initiated or LIF-initiated transcription factor binding different fragments of the hamster INGAP 5′-regulatory region were cloned into pβGal-Basic. The fragments cloned into the reporter construct were 2—3sP (SEQ ID NO: 37), 2—3dP (SEQ ID NO: 38), 2—3pP (SEQ ID NO: 36), 14—3P (SEQ ID NO: 34), 16—3P (SEQ ID NO: 31), or 19—3P (SEQ ID NO: 23). […] To determine the level of promoter activity, the amount of β-galactosidase gene product was determined using a luminescent assay for β-galactosidase. […]

[2] = tested on: INGAP gene; test: Northern RNA analysis of INGAP gene upregulation in AR42J cells; type: cell-based; conditions: rat AR42J cells; IL-6 1000 U/ml, 24 hours; FIG. 12
Protocol: To determine if INGAP RNA levels increase after stimulation with a cytokine that signals through STAT, rat amphocrine pancreatic cells, AR42J were treated with IL-6 (1000 U/ml) for 24 hours. Total RNA was extracted from the treated and untreated cells using techniques well known in the art, e.g., using TRIZOL® reagent.
Equal amounts of total RNA (10 μg) were loaded in 2.5% formaldehyde gel and electrophoresed for 4 hours at 70V with a constant circulation of the buffer using a circulating pump. The gel was photographed and washed with water twice at room temperature and soaked in 20×SSC. The gel was transferred to a nylon membrane (Amersham) in 20×SSC overnight following a standard procedure. The membrane was washed with 20×SSC to remove any agar that might have attached to the membrane and baked for 4 hours at […].
One hundred nanograms of hamster INGAP cDNA was labeled using Random Prime Labeling kit (Roche-BMB) and alpha-P^32 dCTP (ICN). Approximately 20 million counts were used for hybridization in 20 ml hybridization buffer following the standard procedure at 42° for overnight. The blot was washed as follows: 2-times at room temperature with 2×SSC for 10 minutes each; 2-times at 42° with 2×SSC for 10 minutes each; 2-times at 55° with 1×SSC for 10 minutes each. The membrane was exposed to the film (XOMAT-Kodak) and kept at −80° C. overnight before developing.

With `CCCCCCCCCCCCCC(=O)O[C@@H]1[C@@H](C)[C@@]2(O)[C@@H](C=C(CO)C[C@]3(O)C(=O)C(C)=C[C@@H]23)[C@@H]2C(C)(C)[C@]12OC(C)=O` [PMA, phorbol myristate acetate, reference compound] the “promoter activity (β-galactosidase reporter, luminescent assay)” value (from here on “promoter activity”) ([1]; constructs 2_3sP, 2_3dP, 2_3pP, 14_3P, 16_3P, 19_3P, PMA 6, 17, 50, 100 or 300 ng/ml, 24 hours, FIG. 10) was “activated the cell reporter constructs”.
For “LIF: human leukemia inhibitory factor (hLIF)”, the “promoter activity” value ([1]; construct with INGAP 5′-regulatory region nucleotides 2030 to 3120, treated 24 hours, two days after transfection, FIG. 9B) was “increase the activity of the 5′-regulatory region of mammalian INGAP” and the “promoter activity” value ([1]; constructs 2_3sP, 2_3dP, 2_3pP, 14_3P, 16_3P, 19_3P, LIF 1, 10 or 30 ng/ml, 24 hours, FIG. 11) was “activated the cell reporter constructs”.
With “IL-6: cytokine that signals through STAT” the “INGAP gene expression (RNA, Northern analysis)” value [2] was “increase in INGAP gene expression”.
